In one series the target is STa receptor (Homo sapiens, UniProt P25092). The series is described as follows: Competitive inhibition of the STa receptor. In kind it is binding. How it is done: Isolation and purification were done using the same HPLC conditions yielding about 0.1 mg yellow product. Ultra violet maxima in 1/1 water/methanol 10 mM ammonium acetate were: 202 nm (a 0.822), 277 nm (a 0.096), 457 nm (a 0.096), 482 nm (a 0.107). Mass spectrum (electrospray, negative): M−H 2359; M+Na 2381; theoretical M 2360.
Sequence of STa receptor (P25092 24-1073, species assumed): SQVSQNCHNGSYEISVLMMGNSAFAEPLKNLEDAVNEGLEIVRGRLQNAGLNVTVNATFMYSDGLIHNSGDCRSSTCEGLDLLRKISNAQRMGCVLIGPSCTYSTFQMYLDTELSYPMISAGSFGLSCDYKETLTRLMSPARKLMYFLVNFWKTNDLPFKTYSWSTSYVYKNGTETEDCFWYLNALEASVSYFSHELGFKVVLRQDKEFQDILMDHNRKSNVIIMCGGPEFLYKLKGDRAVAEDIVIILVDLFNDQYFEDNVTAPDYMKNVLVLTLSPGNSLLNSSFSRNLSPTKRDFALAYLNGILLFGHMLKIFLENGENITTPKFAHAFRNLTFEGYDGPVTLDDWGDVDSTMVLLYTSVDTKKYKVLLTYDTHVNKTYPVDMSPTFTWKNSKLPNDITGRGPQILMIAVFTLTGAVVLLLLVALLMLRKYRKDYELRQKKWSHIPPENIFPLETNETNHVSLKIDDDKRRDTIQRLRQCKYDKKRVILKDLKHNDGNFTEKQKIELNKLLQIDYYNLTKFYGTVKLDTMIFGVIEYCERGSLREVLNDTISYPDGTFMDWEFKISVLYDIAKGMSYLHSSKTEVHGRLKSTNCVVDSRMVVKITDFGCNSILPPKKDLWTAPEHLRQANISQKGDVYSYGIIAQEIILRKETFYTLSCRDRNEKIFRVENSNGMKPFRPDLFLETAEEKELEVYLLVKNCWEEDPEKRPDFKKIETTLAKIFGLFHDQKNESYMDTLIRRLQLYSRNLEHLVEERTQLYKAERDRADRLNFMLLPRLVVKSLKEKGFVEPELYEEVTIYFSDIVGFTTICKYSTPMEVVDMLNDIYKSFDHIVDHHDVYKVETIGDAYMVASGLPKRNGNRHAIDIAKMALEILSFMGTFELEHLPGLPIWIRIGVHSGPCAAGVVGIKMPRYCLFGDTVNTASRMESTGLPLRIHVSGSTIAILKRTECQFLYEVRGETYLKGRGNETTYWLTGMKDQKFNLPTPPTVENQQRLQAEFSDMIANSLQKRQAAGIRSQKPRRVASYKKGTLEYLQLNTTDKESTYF

For series [1], the system named is HT-29 tumors. To be noted: mouse, in vivo.
From the text: (§1) FIG. 2A is a graph of comparative biodistribution data of contrast agent Polymer 3 (NC100448) versus indocyanine green as control in female immunodeficient mice containing HT-29 tumors at one hour post intravenous injection of phosphate buffered saline solutions of each.
(§2) FIG. 2B is a graph of comparative biodistribution data of contrast agent Polymer 3 (NC100448) versus indocyanine green as control in female immunodeficient mice containing HT-29 tumors at three hours post intravenous injection of phosphate buffered saline solutions of each.
Series [2] concerns HT-29 tumors. The series is described as follows: Biodistribution / tumor localization in immunodeficient mice with HT-29 tumors. Particulars: female immunodeficient mice with HT-29 tumors.
From the text: as §1, §2
Series [3] deals with HL-60 human peripheral blood promyelocytic leukemia cells. The series is described as follows: Sonication of HL-60 cell suspensions in vitro, cell death by Trypan Blue and LDH. In kind it is cell-based. Particulars: 148 nanomoles/ml, insonated 60 and 120 seconds, 65 volts, 47 kHz bath. The procedure: HL-60 human peripheral blood promyelocytic leukemia cells (American Type Culture Collection, Rockville, Md.) were grown at 37° C. in a 5% CO2/air atmosphere, in a 1:1 mixture of DMEM and IMEM fortified with 10% fetal bovine serum. Before use, the cells were centrifuged (5 min. at 1500 rpm), washed with phosphate buffered saline (PBS), and then resuspended in PBS, the volume being adjusted to provide cell suspensions containing […]. These were stored in crushed ice until used.
Viability was assessed by staining with Trypan Blue dye. 50 μl of the suspension were mixed with […] Trypan Blue solution (0.4%, Sigma), and the cell concentration counted using a Neubauer-type hemocytometer. Four or five large squares were counted, the blue (dead) cells being counted separately from the unstained (live) cells, and the results averaged. […]
For insonation, the voltage was set to the required value, the power was turned on, and the sample exposed for the required amount of time (secs.). Viability was again assessed with Trypan Blue, the samples were then centrifuged for 5 minutes at 2000 rpm, and a sample of cell free supernatant liquid taken for lactate dehydrogenase (LDH) measurement. […] The LDH was measured by a standard procedure using a Beckman Synchron CX5CE Instrument, the results were measured in IU/l, and afforded a quantitative measurement of cell death in the samples. […]

The conditions of series [4]: cited from earlier work.
For series [5], the system named is leucocytes (white blood cells). The series is described as follows: Fate in dog blood (confocal scanning microscope, flow cytometry). In kind it is in vivo. Particulars: injected into beagle dogs; flow cytometry and fluorescence microscopy.

“Also recorded” adds a separate entry of the source. Like-named read-outs stand apart in the source and are kept apart here.

“Thiourea Linked 5-fluorescein to STa (syn. 2) [Example 79]”: at STa receptor, the “competitive inhibitor of the STa receptor” value is “tested positive”.

Consider “[Melamine][SO2ClAlPc(SO3H)3]3 [Example 46]”, for which the “injected dose localized in the tumor after one hour” value (shortened to “injected dose localized”) with HT-29 tumors [1] is listed as 0.1 % of the injected dose.

As to “copolymer of PEG 5000-α,ω-diamine and aluminum(III)phthalocyanine tetrasulfonyl chloride [Example 4]”, the “injected dose localized” value in the series with HT-29 tumors [1] was 2.5 % of the injected dose.

Consider “[NH(PEG3400)NHSO2PcAlCl(SO3H)2SO2]n [Example 43]”, for which the “injected dose localized” value in the series with HT-29 tumors [1] is 4 % of the injected dose.

In the case of “bisthioether 2:1 dye:polymer reaction product between 2-[2-[2-chloro-3-[[1,3-dihydro-1,1,-dimethyl-3-(3-sulfopropyl)-2H-benz[e]indol-2-ylidene]ethylidene]-5-(ethoxycarbonyl)-1-cyclohexen-1-yl]ethenyl]-1,1-dimethyl-3-(3-sulfopropyl)-1H-benz[e]indolium, inner salt, sodium salt and disodium PEG3,400-α,ω-dithiolate [Polymer 3]”, in the series with HT-29 tumors [1], the “concentration in the blood at three hours relative to one hour” value is given as “decreased” and the “concentration in the tumor at three hours relative to one hour” value is listed as “increased”. Moreover, in the series with HT-29 tumors [1] (iv), the “detection in the tumor (FIG. 2A)” value is listed as “detected in the tumor” and the “detection in the tumor (FIG. 2B)” value is listed as “detected in the tumor”.

As to `CC1(C)C(/C=C/C=C/C=C/C=C2\N(CCCCS(=O)(=O)O)c3ccc4ccccc4c3C2(C)C)=[N+](CCCCS(=O)(=O)[O-])c2ccc3ccccc3c21` [indocyanine green], in the series on HT-29 tumors [2] (one hour post intravenous injection, PBS solution), the “detection in the tumor (FIG. 2A)” value is given as “negligibly detected”. Besides, the “detection in the tumor (FIG. 2B)” value with HT-29 tumors [2] (three hours post intravenous injection, PBS solution) was “negligibly detected”.

Consider “chloroaluminum phthalocyanine tetrasulfonate”, for which the “cell killing under ultrasound (FIG. 1)” value in series [3] is listed as “Enhancement of Cell Killing”.

Take “copolymer of PEG3400-α,ω-diamine and aluminum(III)phthalocyanine tetrasulfonyl chloride [Example 1]”: the “injected dose localized” value in the series on HT-29 tumors [2] (solution in phosphate buffered saline injected, one hour) was 4 % of the injected dose.

For `Oc1ccc2ccccc2c1N=Nc1ccc(N=Nc2ccccc2)cc1` [Sudan III], in series [4] (sesame oil), the “solubility in sesame oil” value is recorded as “soluble in sesame oil”. In addition, the solubility in water entry in series [4] (water) is given as “very insoluble in water”.

Take “copolymer of melamine and aluminum(III)phthalocyanine tetrasulfonyl chloride [Example 5]”: the “injected dose localized” value with HT-29 tumors [1] was 0.1 % of the injected dose.

As to ClAlPc(SO2NHPEG5000)4 [Example 45], in the series with HT-29 tumors [1], the “injected dose localized” value is 2.5 % of the injected dose.

For “Air-exposed-Tetronic-908-conjugated-to-fluorescein Isothiocyanate”, the “binding to blood cells” value in series [5] is reported as “binds to a specific cell class within the blood; also recorded: attached to leucocytes (white blood cells)”.

Molecule `CCOC(=O)c1c(I)c(NS(=O)(=O)c2cccc3c(N(C)C)cccc23)c(I)c(N(CC)C(C)=O)c1I` [Example 52, Ethyl 3-(N-Acetyl-N-ethylamino)-5-[(5-dimethylamino-1-naphthylsulfonyl)amino]-2,4,6-triiodobenzoate] came in with a melting point of 238 to 240 °C.

These data come from patent publication US6498945B1, “Sonodynamic therapy using an ultrasound sensitizer compound” (Amersham Health AS, priority 1997, dated 2002).
